# Assays:
# Assay type in all cases: biochemical
# GSK-3β (AA 1-420) = molecular target: T1, GSK-3β (AA 1-420) (Homo sapiens, UniProt P49841); assay: Ki determination for the inhibition of GSK-3, standard coupled enzyme system; settings: 20 μM ATP, 300 μM peptide, 20 nM GSK-3β, 30° C.; read-out: Ki values for GSK-3
# T1 construct: GSK-3β (AA 1-420)
# Description: Final substrate concentrations in the assay were 20 μM ATP (Sigma Chemicals, St Louis, Mo.) and 300 μM peptide (HSSPHQS(PO3H2)EDEEE, American Peptide, Sunnyvale, Calif.). Reactions were carried out at 30° C. and 20 nM GSK-3β. Final concentrations of the components of the coupled enzyme system were 2.5 mM phosphoenolpyruvate, 300 μM NADH, 30 μg/ml pyruvate kinase and 10 μg/ml lactate dehydrogenase.
# An assay stock buffer solution was prepared containing all of the reagents listed above with the exception of ATP and the test compound of interest. The assay stock buffer solution (175 μl) was incubated in a 96 well plate with 5 μl of the test compound of interest at final concentrations spanning 0.002 μM to 30 μM at 30 ° C. for 10 min. […] The reaction was initiated by the addition of 20 μl of ATP (final concentration 20 μM). Rates of reaction were obtained using a Molecular Devices Spectramax plate reader (Sunnyvale, Calif.) over 10 min at 30° C. The Ki values were determined from the rate data as a function of inhibitor concentration.
# CDK-2/Cyclin A [1] = molecular target: T2, CDK-2/Cyclin A (Homo sapiens, UniProt P24941); assay: Inhibition of CDK-2, standard coupled enzyme assay; settings: 25 nM CDK-2/Cyclin A, 100 μM peptide, 30° C.
# Description: Compounds were screened in the following manner for their ability to inhibit CDK-2 using a standard coupled enzyme assay (Fox et al (1998) Protein Sci 7, 2249).
# To an assay stock buffer solution containing 0.1M HEPES 7.5, 10 mM MgCl2, 1 mM DTT, 25 mM NaCl, 2.5 mM phosphoenolpyruvate, […], […], […], […], and 100 μM peptide ([…], American Peptide, Sunnyvale, Calif.) was added a DMSO solution of a compound of the present invention to a final concentration of 30 μM. The resulting mixture was incubated at 30° C. for 10 min. The reaction was initiated by the addition of 10 μL of CDK-2/Cyclin A stock solution to give a final concentration of 25 nM in the assay. The rates of reaction were obtained by monitoring absorbance at 340 nm over a 5-minute read time at 30° C. using a BioRad Ultramark plate reader (Hercules, Calif.). The Ki values were determined from the rate data as a function of inhibitor concentration.
# Aurora-2 = molecular target: T3, Aurora-2 (Homo sapiens, UniProt O14965); assay: Ki determination for the inhibition of Aurora-2, standard coupled enzyme assay; settings: 70 nM Aurora-2, 800 μM peptide LRRASLG, 30° C.
# T3 sequence (O14965 1-403): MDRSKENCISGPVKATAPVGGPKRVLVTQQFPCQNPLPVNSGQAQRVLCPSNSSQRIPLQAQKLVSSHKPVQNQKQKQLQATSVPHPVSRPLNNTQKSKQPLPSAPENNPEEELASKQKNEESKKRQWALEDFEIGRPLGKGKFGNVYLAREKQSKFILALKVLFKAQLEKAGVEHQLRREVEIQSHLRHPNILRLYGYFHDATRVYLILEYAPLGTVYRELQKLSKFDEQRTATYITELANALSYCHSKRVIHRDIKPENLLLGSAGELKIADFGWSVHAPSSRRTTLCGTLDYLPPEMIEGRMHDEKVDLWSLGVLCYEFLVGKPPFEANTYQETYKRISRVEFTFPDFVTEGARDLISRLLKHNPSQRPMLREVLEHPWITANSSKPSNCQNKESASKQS
# Description: Compounds were screened in the following manner for their ability to inhibit Aurora-2 using a standard coupled enzyme assay (Fox et al. (1998) Protein Sci. 7, 2249).
# To an assay stock buffer solution containing 0.1M HEPES 7.5, 10 mM MgCl2, 1 mM DTT, 25 mM NaCl, 2.5 mM phosphoenolpyruvate, […], 30 mg/ml pyruvate kinase, 10 mg/ml lactate dehydrogenase, […], and 800 μM peptide (LRRASLG, American Peptide, Sunnyvale, Calif.) was added a DMSO solution of a compound of the present invention to a final concentration of 30 μM. The resulting mixture was incubated at 30° C. for 10 min. The reaction was initiated by the addition of 10 μL of Aurora-2 stock solution to give a final concentration of 70 nM in the assay. The rates of reaction were obtained by monitoring absorbance at 340 nm over a 5 minute read time at 30° C. using a BioRad Ultramark plate reader (Hercules, Calif.). The Ki values were determined from the rate data as a function of inhibitor concentration.
# CDK-2/Cyclin A [2] = molecular target: T2, CDK-2/Cyclin A; assay: Inhibition of CDK-2, standard coupled enzyme assay; settings: for inhibition at 2 µM: 2 μM compound; for inhibition at 10 µM: read-out: CDK-2 % inhibition @ 10 μM, 10 μM compound
# T1 sequence (P49841 whole entry, the tested form may be a part): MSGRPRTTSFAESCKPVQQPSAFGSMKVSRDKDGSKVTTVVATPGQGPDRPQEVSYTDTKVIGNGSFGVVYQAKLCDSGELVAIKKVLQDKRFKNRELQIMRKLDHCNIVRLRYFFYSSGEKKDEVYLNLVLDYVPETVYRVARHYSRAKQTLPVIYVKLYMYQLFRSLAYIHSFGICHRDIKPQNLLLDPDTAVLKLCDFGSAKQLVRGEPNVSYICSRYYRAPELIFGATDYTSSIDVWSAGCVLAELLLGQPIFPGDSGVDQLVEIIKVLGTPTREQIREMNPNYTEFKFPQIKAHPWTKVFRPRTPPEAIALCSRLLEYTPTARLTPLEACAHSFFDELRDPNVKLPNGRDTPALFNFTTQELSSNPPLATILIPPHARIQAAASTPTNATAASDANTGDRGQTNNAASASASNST
Ki (GSK-3β (AA 1-420)) [nM],Ki (CDK-2/Cyclin A [1]) [nM],Ki (Aurora-2) [nM],inhibition at 2 µM (CDK-2/Cyclin A [2]) [%],inhibition at 10 µM (CDK-2/Cyclin A [2]) [%],SMILES
100 to 1000,1000 to 20000,,,,"COc1ccc(C2=NNC(=O)C2=CNc2cccc(OCc3ccccc3)c2)cc1OC [Compound 92, 4-[(3-Benzyloxy-phenylamino)-methylene]-5-(3,4-dimethoxy-phenyl)-2,4-dihydro-pyrazol-3-one]"
,1000 to 20000,< 100,,,"CCOc1ccc(C2=NNC(=O)C2=NNc2ccc(N(CC)CCO)cc2)cc1OCC [Compound 115, 5-(3,4-Diethoxy-phenyl)-4-({4-[ethyl-(2-hydroxy-ethyl)-amino]-phenyl}-hydrazono)-2,4-dihydro-pyrazol-3-one]"
< 100,,< 100,,,COc1cc(C2=NNC(=O)C2=NNc2ccc(Cl)cc2)cc(OC)c1OC [Compound 23]
,1000 to 20000,100 to 1000,,,"CCN(CC)c1ccc(NN=C2C(=O)NN=C2c2ccc(OCc3ccccc3)c(OC)c2)cc1 [Compound 117, 5-(4-Benzyloxy-3-methoxy-phenyl)-4-[(4-diethylamino-phenyl)-hydrazono]-2,4-dihydro-pyrazol-3-one]"
< 100,,< 100,,,CCN(CC)c1ccc(N/N=C2\C(=O)NN=C2c2ccc(OC)c(OC)c2)cc1 [Compound 37]
< 100,,< 100,,,COc1ccc(C2=NNC(=O)/C2=N\Nc2ccc(N3CCOCC3)cc2)cc1OC [Compound 61]
< 100,,100 to 1000,,,COc1ccc(C2=NNC(=O)/C2=N\Nc2ccc(Cl)cc2)cc1 [Compound 43]
< 100,,< 100,,,COc1cccc(N/N=C2\C(=O)NN=C2c2ccc(OC)c(OC)c2)c1 [Compound 73]
< 100,,< 100,,,CCN(CCO)c1ccc(NN=C2C(=O)NN=C2c2cc(OC)c(OC)c(OC)c2)cc1 [Compound 223]
< 100,1000 to 20000,,,,"COc1ccc(C2=NNC(=O)C2=NNc2ccc(OCCCN(C)C)c(-c3ccccc3)c2)cc1OC [Compound 121, 5-(3,4-Dimethoxy-phenyl)-4-{[6-(3-dimethylamino-propoxy)-biphenyl-3-yl]-hydrazono}-2,4-dihydro-pyrazol-3-one]"
< 100,,,,,COc1ccc(C2=NNC(=O)C2=NNc2ccc3c(c2)C(=O)c2ccccc2-3)cc1OC [Compound 207]
,1000 to 20000,< 100,,,"COc1cc(C2=NNC(=O)C2=NNc2ccc(N3CCOCC3)cc2)ccc1OCc1ccccc1 [Compound 119, 5-(4-Benzyloxy-3-methoxy-phenyl)-4-[(4-morpholin-4-yl-phenyl)-hydrazono]-2,4-dihydro-pyrazol-3-one]"
< 100,,,,,COc1ccc(C2=NNC(=O)C2=NNc2cccc(-c3ccccc3)c2)cc1 [Compound 203]

# The next lines start with the molecule.
SMILES,Ki (GSK-3β (AA 1-420)) [nM],Ki (CDK-2/Cyclin A [1]) [nM],Ki (Aurora-2) [nM],inhibition at 2 µM (CDK-2/Cyclin A [2]) [%],inhibition at 10 µM (CDK-2/Cyclin A [2]) [%]
"COc1ccc(C2=NNC(=O)C2=NNc2ccc(OCCCN(C)CCO)c(-c3ccccc3)c2)cc1OC [Compound 120, 5-(3,4-dimethoxy-phenyl)-4-[(6-{3-[(2-hydroxy-ethyl)-methyl-amino]-propoxy}-biphenyl-3-yl)-hydrazono]-2,4-dihydro-pyrazol-3-one]",< 100,1000 to 20000,,,
COc1ccc(N/N=C2\C(=O)NN=C2c2cc(OC)c(OC)c(OC)c2)cc1 [Compound 22],< 100,,< 100,,
"COc1ccc(C2=NNC(=O)C2=CNc2cccc(S(N)(=O)=O)c2)cc1OC [Compound 95, 3-{[3-(3,4-Dimethoxy-phenyl)-5-oxo-1,5-dihydro-pyrazol-4-ylidenemethyl]-amino}-benzenesulfonamide]",100 to 1000,1000 to 20000,,,
COc1ccc(C2=NNC(=O)C2=CNc2cccc(C(=O)c3ccccc3)c2)cc1 [Compound 93],100 to 1000,1000 to 20000,,,
COc1ccc(C2=NNC(=O)/C2=N\Nc2ccc(N3CCOCC3)cc2)cc1 [Compound 60],< 100,,100 to 1000,,
COc1ccc(C2=NNC(=O)C2=CNc2ccc3c(c2)N(C(C)=O)CC3)cc1 [Compound 97],< 100,1000 to 20000,,,
COc1ccc(NN=C2C(=O)NN=C2c2ccc(OC)cc2)cc1 [Compound 46],< 100,,100 to 1000,82,95
COc1ccc(C2=NNC(=O)C2=NNc2ccc(Cl)cc2)cc1OC [Compound 44],< 100,,,87,94
COc1ccc(C2=NNC(=O)C2=CNc2ccc3c(c2)NCC3)cc1 [Compound 96],100 to 1000,1000 to 20000,,,
COc1ccc(C2=NNC(=O)C2=CNc2ccc(OC)c(O)c2)cc1 [Compound 98],< 100,100 to 1000,,,
"COc1ccc(C2=NNC(=O)C2=NNc2ccc(OC)c(-c3cccnc3)c2)cc1OC [Compound 106, 5-(3,4-Dimethoxy-phenyl)-4-[(4-methoxy-3-pyridin-3-yl-phenyl)-hydrazono]-2,4-dihydro-pyrazol-3-one]",< 100,1000 to 20000,,,
COc1ccc(C2=NNC(=O)C2=NNc2ccc(Oc3ccccc3)cc2)cc1OC [Compound 86],< 100,,< 100,,
COc1ccc(C2=NNC(=O)/C2=N\Nc2cccc(Cl)c2)cc1OC [Compound 70],< 100,,100 to 1000,,
COc1ccc(N/N=C2\C(=O)NN=C2c2ccc(OC)c(OC)c2)cc1 [Compound 47],< 100,,< 100,,
"CCOc1ccc(C2=NNC(=O)C2=NNc2ccc(N(CC)CC)cc2)cc1OCC [Compound 114, 5-(3,4-Diethoxy-phenyl)-4-[(4-diethylamino-phenyl)-hydrazono]-2,4-dihydro-pyrazol-3-one]",,1000 to 20000,< 100,,
"CCN(CCO)c1ccc(NN=C2C(=O)NN=C2c2ccc(OCc3ccccc3)c(OC)c2)cc1 [Compound 118, 5-(4-Benzyloxy-3-methoxy-phenyl)-4-({4-[ethyl-(2-hydroxy-ethyl)-amino]-phenyl}-hydrazono)-2,4-dihydro-pyrazol-3-one]",,1000 to 20000,< 100,,
COc1ccc(C2=NNC(=O)/C2=N\Nc2ccc(N(C)C)cc2)cc1OC [Compound 52],< 100,,< 100,,
COc1ccc(C2=NNC(=O)/C2=N\Nc2ccc(C#N)cc2)cc1OC [Compound 58],< 100,,100 to 1000,,
COc1cccc(C2=NNC(=O)/C2=N\Nc2ccc(N3CCOCC3)cc2)c1 [Compound 62],< 100,,100 to 1000,,
COc1ccc(C2=NNC(=O)C2=CNc2ccc(Oc3ccccc3)cc2)cc1 [Compound 91],100 to 1000,1000 to 20000,,,
"CCOc1ccc(C2=NNC(=O)C2=NNc2ccc(N3CCOCC3)cc2)cc1OCC [Compound 116, 5-(3,4-Diethoxy-phenyl)-4-[(4-morpholin-4-yl-phenyl)-hydrazono]-2,4-dihydro-pyrazol-3-one]",,1000 to 20000,< 100,,

# — patent publication US6916798B2, “Inhibitors of GSK-3 and uses thereof” (Vertex Pharmaceuticals Incorporated, priority 2001, dated 2005)
